Tests used:
IP6K1^wt = target: T1, IP6K1^wt (Homo sapiens, UniProt Q92551); test: High-throughput screen, reverse kinase reaction (5PP-InsP5 + ADP), Kinase-Glo luminescence; assay type: biochemical; settings: dose-dependent reconfirmation
T1 construct: made in house; host or cells: E. coli Arctic Express

HEK293 = test: Cytotoxicity, cell survival after 72 hr incubation; assay type: cell-based; settings: HEK293, 10 µM
Description: (§1) Supplementary file elife-88982-supp2.xlsx: Supplementary file 2. Cytotoxicity of selected hits indicated by cell survival after 72 hr incubation at 10 µM concentration. All compounds were measured in independent triplicates and errors represent standard deviation. Redox activity of selected compounds measured via a photometric surrogate assay. Reactions contained 50 mM HEPES pH 7.5, 50 mM NaCl, 200 mM DTT, and 20 µM resazurin, and were incubated for 1 hr at 37°C.

HepG2 = test: Cytotoxicity, cell survival after 72 hr incubation; assay type: cell-based; settings: HepG2, 10 µM
Description: as §1

MBP-HsIP6K1^L210V = target: T2, MBP-HsIP6K1^L210V (Homo sapiens, UniProt Q92551, L210V); test: Hydrogen deuterium exchange mass spectrometry (HDX-MS), apo vs inhibitor-bound; assay type: binding; settings: IP6K1^L210V apo vs bound to FMP-201300
T2 construct: made in house; host or cells: E. coli Arctic Express
T2 sequence (Q92551 whole entry L210V): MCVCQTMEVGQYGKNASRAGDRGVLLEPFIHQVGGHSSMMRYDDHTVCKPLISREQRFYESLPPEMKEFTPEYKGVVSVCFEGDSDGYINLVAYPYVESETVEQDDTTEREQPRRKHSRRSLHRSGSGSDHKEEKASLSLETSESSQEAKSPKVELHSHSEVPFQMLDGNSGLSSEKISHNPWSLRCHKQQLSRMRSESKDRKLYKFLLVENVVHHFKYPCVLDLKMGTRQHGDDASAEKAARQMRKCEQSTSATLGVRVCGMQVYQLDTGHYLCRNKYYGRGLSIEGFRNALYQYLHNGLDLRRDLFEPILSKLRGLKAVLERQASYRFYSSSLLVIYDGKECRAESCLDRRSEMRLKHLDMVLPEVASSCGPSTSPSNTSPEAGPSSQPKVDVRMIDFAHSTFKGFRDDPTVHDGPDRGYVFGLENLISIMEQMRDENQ
Description: (§2) Prior to initiation of deuterium exchange reactions, enzymes were incubated with inhibitor or DMSO blank for 15 min at RT (final concentration: 3 µM enzyme, 50 µM inhibitor, in a buffer consisting of 20 mM HEPES 7.4, 50 mM NaCl, 1% DMSO). From this mixture, 5 µl was taken per sample and 45 µl of deuterated buffer was added to initiate deuterium exchange (final concentrations: 300 nM enzyme, 5 µM inhibitor; final buffer concentration: 20 mM HEPES 7.4, 50 mM NaCl, 85.63% deuterium, 0.1% DMSO). Reactions were carried out in triplicate at 3 (3, 30, and 300 s) or four different time points (0.3, 3, 30, and 300 s) and were quenched by the addition of 20 µl of ice-cold quench buffer (final concentration: 0.57 M GuaHCL, 0.86% formic acid). Samples were snap-frozen in liquid nitrogen and then stored at −80°C until mass analysis.
(§3) Samples were rapidly thawed and injected onto an ultra-performance liquid chromatography (UPLC) at 2°C. […] Peptides were identified using data-dependent acquisition methods following tandem MS/MS experiments. MS/MS datasets were analyzed using MaxQuant against a database of purified proteins and known contaminants with an false discovery rate (FDR) cut-off of 1%.
(§4) Deuterium incorporation of peptides was automatically calculated using HDExaminer Software (Sierra Analytics). […]

MBP-HsIP6K1^wt = target: T3, MBP-HsIP6K1^wt (Homo sapiens, UniProt Q92551); test: as above; assay type: binding; settings: IP6K1^wt apo vs inhibitor-bound
T3 construct: made in house; host or cells: E. coli Arctic Express
T3 sequence (Q92551 whole entry): as the sequence (Q92551 whole entry L210V) above, with V210L counted along it
Description: as §2, §3, §4

T1 sequence (Q92551 whole entry): as the sequence (Q92551 whole entry L210V) above, with V210L counted along it

**Q.** O=C(O)c1ccc2c(c1)C(=O)N(c1ccc(-c3nc4ccc(N5C(=O)c6ccc(C(=O)O)cc6C5=O)cc4[nH]3)cc1)C2=O [FMP-201300] was tested. Which IC50 (IP6K1^wt) did it give?
**A.** 17 µM

**Q.** And the cytotoxic (HEK293)?
**A.** nor cytotoxic

**Q.** What about the “Cell number (%)” value (HEK293; 72 hr incubation) of the same molecule?
**A.** 100.1 ± 4.1%

**Q.** And the cytotoxic (HepG2)?
**A.** nor cytotoxic

**Q.** What about the “Cell number (%)” value (HepG2; 72 hr incubation) of the same molecule?
**A.** 99.1 ± 2.8%

**Q.** And the “change in deuterium exchange rates upon inhibitor binding” value (MBP-HsIP6K1^L210V)?
**A.** Major decreases in exchange rates were observed in proximity to the ATP-binding site

**Q.** What about the “change in deuterium incorporation upon inhibitor binding” value (MBP-HsIP6K1^wt) of the same molecule?
**A.** no significant changes in deuterium incorporation were observed

— publication PMC10578927, “An unconventional gatekeeper mutation sensitizes inositol hexakisphosphate kinases to an allosteric inhibitor” (eLife, 2023)
